We go through four compounds from patent publication US20240158348A1, “HERBICIDAL CYCLIC AMIDES N-SUBSTITUTED WITH A HALOALKYLSULFONYLANILIDE GROUP” (FMC Corporation, priority 2021, published 2024).

Common to all, as to type: in vivo
For experiment [1], the system named is foxtail, giant (giant foxtail, Setaria faberi). Kind of experiment: Test C preemergence, giant foxtail. The following applies: 0 is no effect, 100 is complete control. The procedure, abridged: (§1)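 Herbicidal effect was estimated visually on a 0–100 scale 10 or 12 days after spraying. Formulation: non-phytotoxic solvent mixture with surfactant. Timing: directed soil spray after sowing, or postemergence on seedlings bearing one or two leaves.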

The test system of experiment [2] is sedge, umbrella (small-flower umbrella sedge, Cyperus difformis). The experiment can be described thus: Test D flooded paddy test, umbrella sedge. The arrangement: key: 0 = no effect, 100 = complete control. The following applies: 250 g ai/ha, Flood; applied to paddy water at 2-leaf stage; visual rating after 13 days; scale 0 (no effect) to 100 (complete control). The procedure, abridged:
(§2)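 Test compounds applied directly to paddy water after pots were flooded to 3 cm above soil, with plants at 2-leaf stage; depth held throughout. Greenhouse for 13 days, then visual rating versus controls on 0–100 scale (0 no effect, 100 complete control); dash means no result.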

In experiment [3] the test system is pigweed, palmer (palmer amaranth, Amaranthus palmeri). The experiment can be described thus: Test C postemergence, palmer amaranth. The following applies: for Pigweed, Palmer plant response rating: visual injury, 0 to 100 scale (0 no effect, 100 complete control); for Plant response rating (0 to 100 scale), Pigweed, Palmer: 0 is no effect, 100 is complete control. The procedure, abridged:
as §1

The subject of experiment [4] is goosegrass (Eleusine indica). The experiment can be described thus: Test C preemergence, goosegrass. As to conditions: 0 is no effect, 100 is complete control. In outline:
(§3)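 Steps: sow in loam soil blended with sand; treat soil preemergence by directed spray, or treat young plants (2–10 cm, one to two leaves) postemergence; hold in greenhouse 10 or 12 days; rate injury visually relative to untreated controls on a 0–100 scale.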

For experiment [5], the system named is wheat (Triticum aestivum). Kind of experiment: Test C postemergence, wheat. The following applies: for Wheat plant response rating: visual injury, 0 to 100 scale (0 no effect, 100 complete control); for Plant response rating (0 to 100 scale), Wheat: 0 is no effect, 100 is complete control. In outline:
as §1

The test system of experiment [6] is barnyardgrass (Echinochloa crusgalli). Kind of experiment: Test D flooded paddy test, barnyardgrass. Details: key: 0 = no effect, 100 = complete control. As to conditions: 250 g ai/ha, Flood; applied to paddy water at 2-leaf stage; visual rating after 13 days; scale 0 (no effect) to 100 (complete control). In outline: as §2
Experiment [7] has as its system soybean (Glycine max). Kind of experiment: Test C postemergence, soybean. The following applies: for Soybean plant response rating: visual injury, 0 to 100 scale (0 no effect, 100 complete control); for Plant response rating (0 to 100 scale), Soybean: 0 is no effect, 100 is complete control.
Experiment [8] relates to corn (Zea mays). The experiment can be described thus: Test C preemergence, corn. The following applies: 0 is no effect, 100 is complete control. The procedure, abridged:
as §3

Experiment [9] concerns ragweed (common ragweed, Ambrosia artemisiifolia). The experiment can be described thus: Test C postemergence, ragweed. As to conditions: for Ragweed plant response rating: visual injury, 0 to 100 scale (0 no effect, 100 complete control); for Plant response rating (0 to 100 scale), Ragweed: 0 is no effect, 100 is complete control. The procedure, abridged:
as §1

Take `Cc1c(N2CCCC(OC3CC3)C2=O)cc(N(COC(=O)C(C)(C)C)S(=O)(=O)C(F)(F)F)c(C)c1F` (stereo not shown) [Compound 37]: the “Plant response rating (0 to 100 scale), Foxtail, Giant” value (“Plant response rating … Giant” for short) in [1] (31 g ai/ha Preemergence) is 20; in experiment [1] (125 g ai/ha Preemergence), 90. In [2], the “Plant response rating, Sedge, Umbrella” value was 95. The “Pigweed, Palmer plant response rating” value in experiment [3] (31 g ai/ha Postemergence) was found to be 0; in experiment [3] (125 g ai/ha Postemergence), 30. Besides, the “Plant response rating (0 to 100 scale), Goosegrass” value (from here on “Plant response rating … Goosegrass”) in [4] (31 g ai/ha Preemergence) came to 50; in experiment [4] (125 g ai/ha Preemergence), 100. Moreover, the “Wheat plant response rating” value in [5] (31 g ai/ha Postemergence) worked out at 10; in experiment [5] (125 g ai/ha Postemergence), 60. Besides, in experiment [6], the “Plant response rating, Barnyardgrass” value came to 90. Also, the “Soybean plant response rating” value in experiment [7] (31 g ai/ha Postemergence) came out at 60; in experiment [7] (125 g ai/ha Postemergence), 70. Moreover, the “Plant response rating (0 to 100 scale), Corn” value (from here on “Plant response rating … Corn”) in experiment [8] (31 g ai/ha Preemergence) came to 0; in experiment [8] (125 g ai/ha Preemergence), 10. The figures for the “Ragweed plant response rating” value in experiment [9] (31 g ai/ha Postemergence) and in experiment [9] (125 g ai/ha Postemergence) were 60 and 90, respectively.
With `Cc1c(N2CCC(OC3CCC3)C2=O)cc(N(COC(=O)C(C)(C)C)S(=O)(=O)C(F)(F)F)c(C)c1C` (stereo not shown) [Compound 51], the “Plant response rating … Giant” value in experiment [1] (31 g ai/ha Preemergence) turned out to be 10; in [1] (125 g ai/ha Preemergence), 90. In addition, the “Plant response rating, Sedge, Umbrella” value in experiment [2] was found to be 90. Besides, the “Pigweed, Palmer plant response rating” value is given as 10 in [3] (31 g ai/ha Postemergence) and 60 in [3] (125 g ai/ha Postemergence). Further, the “Plant response rating … Goosegrass” value in [4] (31 g ai/ha Preemergence) came to 0; in experiment [4] (125 g ai/ha Preemergence) it was 90. Moreover, the entries for the “Wheat plant response rating” value in [5] (31 g ai/ha Postemergence) and in [5] (125 g ai/ha Postemergence) were 20 and 70, respectively. Also, the “Plant response rating, Barnyardgrass” value in experiment [6] was 100. Also, the entries for the “Soybean plant response rating” value in [7] (31 g ai/ha Postemergence) and in experiment [7] (125 g ai/ha Postemergence) were 30 and 60, respectively. For the same compound, the “Plant response rating … Corn” value in [8] (31 g ai/ha Preemergence) is 0; in experiment [8] (125 g ai/ha Preemergence), 40. Also, the “Ragweed plant response rating” value in experiment [9] (31 g ai/ha Postemergence) is 60; in experiment [9] (125 g ai/ha Postemergence), 80.
Consider `COC(=O)N(c1cc(N2CCC(OC3CC3)C2=O)c(C)cc1C)S(=O)(=O)C(F)(F)F` (stereo not shown) [Compound 16], for which the “Plant response rating … Giant” value in experiment [1] (31 g ai/ha Preemergence) and in experiment [1] (125 g ai/ha Preemergence) was 0 throughout. In addition, the “Plant response rating, Sedge, Umbrella” value in [2] is recorded as 0. In addition, in experiment [3] (31 g ai/ha Postemergence), the “Pigweed, Palmer plant response rating” value worked out at 0. In addition, in experiment [3] (125 g ai/ha Postemergence), the “Plant response rating (0 to 100 scale), Pigweed, Palmer” value was 0. Moreover, the “Plant response rating … Goosegrass” value in [4] (31 g ai/ha Preemergence) and in experiment [4] (125 g ai/ha Preemergence) was 0 throughout. Further, the “Wheat plant response rating” value in [5] (31 g ai/ha Postemergence) was found to be 0. The “Plant response rating (0 to 100 scale), Wheat” value in [5] (125 g ai/ha Postemergence) is listed as 0. In addition, the “Plant response rating, Barnyardgrass” value in [6] is 0. In addition, the “Soybean plant response rating” value in [7] (31 g ai/ha Postemergence) is given as 40. The “Plant response rating (0 to 100 scale), Soybean” value in experiment [7] (125 g ai/ha Postemergence) turned out to be 60. In addition, the “Plant response rating … Corn” value in [8] (31 g ai/ha Preemergence) and in experiment [8] (125 g ai/ha Preemergence) was 0 in each case. Also, the “Ragweed plant response rating” value in [9] (31 g ai/ha Postemergence) was determined as 80. For the same compound, the “Plant response rating (0 to 100 scale), Ragweed” value in experiment [9] (125 g ai/ha Postemergence) stood at 90.
On to `Cc1cc(C)c(N2CCC(OCC3CC3)C2=O)cc1NS(=O)(=O)C(F)(F)F` (stereo not shown) [Compound 22], for which the “Plant response rating … Giant” value in [1] (31 g ai/ha Preemergence) and in [1] (125 g ai/ha Preemergence) was 100 each time. The “Plant response rating, Sedge, Umbrella” value in experiment [2] was determined as 95. Moreover, the “Pigweed, Palmer plant response rating” value in [3] (31 g ai/ha Postemergence) was 50. The “Plant response rating (0 to 100 scale), Pigweed, Palmer” value in experiment [3] (125 g ai/ha Postemergence) was 80. The “Plant response rating … Goosegrass” value in experiment [4] (31 g ai/ha Preemergence) and in experiment [4] (125 g ai/ha Preemergence) was 100 each time. In experiment [5] (31 g ai/ha Postemergence), the “Wheat plant response rating” value came to 50. Also, the “Plant response rating (0 to 100 scale), Wheat” value in experiment [5] (125 g ai/ha Postemergence) is reported as 60. The “Plant response rating, Barnyardgrass” value in [6] stood at 90. Moreover, the “Soybean plant response rating” value in experiment [7] (31 g ai/ha Postemergence) is 60. The “Plant response rating (0 to 100 scale), Soybean” value in [7] (125 g ai/ha Postemergence) came to 70. Besides, the “Plant response rating … Corn” value in experiment [8] (31 g ai/ha Preemergence) and in [8] (125 g ai/ha Preemergence) was 90 throughout. Also, the “Ragweed plant response rating” value in experiment [9] (31 g ai/ha Postemergence) came out at 60. For the same compound, the “Plant response rating (0 to 100 scale), Ragweed” value in [9] (125 g ai/ha Postemergence) came to 80.
